These results are taken from patent publication US5646316A, “Bile acid inhibitors of metalloproteinase enzymes” (OsteoArthritis Sciences, Inc., priority 1995, dated 1997).

By IC50 is commonly meant the concentration that inhibits the measured activity by half. A higher IC50 goes with lower potency. A word on the inhibition: it is the drop in the measured response relative to a control, in per cent.

Read-outs that look alike come from different tables or passages of the source.

Common to all, as to format: biochemical
One test concerns collagenase. Nature of the test: Assay of Collagenase Inhibition Activity. To be noted: at 10 μM of compound; 45 minutes at 37° C. The procedure: (§1) Stromelysin was first activated by trypsin. This was done by preparing a reaction mixture in B-150 (B-150 consists of 150 mM NaCl, 20 mM Tris at pH 7.8 and 0.02% sodium azide) containing a final concentration of 4 μg/mL trypsin, 1.48 μg/mL of stromelysin, and 3.15 mM CaCl2. The reaction was incubated for 30 minutes at 37° C. and then quenched by adding soybean trypsin inhibitor to a final concentration of 43.6 μg/mL. ZnCl2 was added to the reaction mixture for a total concentration of 0.24 μM.
(§2) Following preparation of the solution of activated stromelysin, assay solutions were prepared for each inhibitor being tested. A control was also prepared. First, […] of activated stromelysin (about 45 μL from the solution of activated stromelysin) were aliquotted per assay tube. A 2.5 mM solution in 100% dimethyl sulfoxide (DMSO) was prepared for each inhibitor being tested and 1 μL from each inhibitor solution was added to one of the assay tubes. In addition, 1 μL of 100% DMSO was added to the control assay tube. All assay tubes were then pre-incubated for 5 minutes.
(§3) 5 μL of a previously prepared 50 μM solution of substrate in 15% DMSO were added to each assay tube. The substrate was a methoxycumarin developed by Knight et al. FEBS Lett. 296:263-66 (1992). The tubes were then incubated for 60 minutes, at which time the reaction was stopped with the addition of 750 μL of 0.1M NaAc pH 4.0 buffer.
(§4) Substrate hydrolysis was assessed by fluorescence using a slit width of 10:10, excitation at 328 nm and emission at 393 nm. The results of these assays are listed in Table I as percent inhibition at 10 μM of the bile acid provided compound tested or as the IC50.
The assay procedure for collagenase was the same as described in Example 13 for stromelysin except that the trypsin activation was performed for 45 minutes. In addition, the incubation of the assay tubes at 37° C. was only for 45 minutes, and the final enzyme concentration is 6 nm. The results of these assays are provided in Table I as percent inhibition at 10 μM of the compound tested.

The target in the test “gelatinase (72 (Kd))” is T1, gelatinase (72 (Kd) (Homo sapiens, UniProt P08253)).
T1 sequence (P08253 110-660): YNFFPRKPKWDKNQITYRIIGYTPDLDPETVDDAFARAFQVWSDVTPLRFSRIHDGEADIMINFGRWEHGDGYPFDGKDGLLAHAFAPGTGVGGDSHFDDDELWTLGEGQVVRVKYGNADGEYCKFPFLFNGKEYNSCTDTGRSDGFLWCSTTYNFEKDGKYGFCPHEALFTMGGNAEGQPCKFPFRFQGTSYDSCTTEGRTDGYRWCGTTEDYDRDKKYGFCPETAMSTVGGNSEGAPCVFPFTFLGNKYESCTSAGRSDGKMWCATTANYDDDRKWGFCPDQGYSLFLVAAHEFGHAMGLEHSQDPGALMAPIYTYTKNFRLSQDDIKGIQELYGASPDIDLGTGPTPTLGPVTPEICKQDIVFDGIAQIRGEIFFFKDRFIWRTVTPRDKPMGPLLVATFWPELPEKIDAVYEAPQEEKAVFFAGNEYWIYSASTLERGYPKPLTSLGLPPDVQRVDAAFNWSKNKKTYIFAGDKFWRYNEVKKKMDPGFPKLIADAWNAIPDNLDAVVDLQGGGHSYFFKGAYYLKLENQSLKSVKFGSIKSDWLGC
The test is described as follows: Assay of Gelatinase Inhibition Activity (72 Kd gelatinase). The settings on record: 60 minutes at 37° C.; for inhibition at 10 µM: at 10 μM of compound, read-out: percent inhibition of gelatinase. The procedure: as §1, §2, §3, §4
The assay procedure for gelatinase (72 (Kd) was the same as described in Example 13 for stromelysin except that the trypsin activation was performed for 60 minutes. In addition, the incubation of the assay tubes at 37° C. was for 60 minutes, and the final enzyme concentration was 3 nm. The results of these assays are listed in Table I as percent inhibition at 10 μM of the compound tested.

For another test, the target named is stromelysin (Homo sapiens, UniProt P08254). The test is described as follows: Assay of Stromelysin Inhibition Activity (fluorogenic substrate hydrolysis). To be noted: for inhibition at 10 µM: read-out: percent inhibition of stromelysin; for IC50: 60 minutes incubation. The procedure:
as §1, §2, §3, §4

Sequence of stromelysin (P08254 100-477): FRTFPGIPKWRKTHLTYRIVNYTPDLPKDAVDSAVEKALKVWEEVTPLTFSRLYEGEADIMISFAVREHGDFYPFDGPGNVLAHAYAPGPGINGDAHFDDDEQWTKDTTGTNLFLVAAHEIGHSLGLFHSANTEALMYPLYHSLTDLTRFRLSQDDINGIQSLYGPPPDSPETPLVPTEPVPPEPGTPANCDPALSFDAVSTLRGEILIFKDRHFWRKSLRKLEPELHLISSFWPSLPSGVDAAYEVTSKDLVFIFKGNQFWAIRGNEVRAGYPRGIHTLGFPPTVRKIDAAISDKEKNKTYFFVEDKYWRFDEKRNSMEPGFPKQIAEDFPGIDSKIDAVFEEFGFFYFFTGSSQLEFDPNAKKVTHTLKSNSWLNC

`C[C@H](CCC(=O)NO)[C@H]1CC[C@H]2[C@@H]3CC[C@@H]4C[C@H](O)CC[C@]4(C)[C@H]3CC[C@]12C` [Compound 13, Lithocholylhydroxamic Acid]: the “percent inhibition of collagenase” value in the test with collagenase worked out at 35%. On gelatinase (72 (Kd)), this molecule registered a 50% inhibitory concentration (IC50) of 8 µM. Besides, on stromelysin (at 10 μM of compound), the inhibition at 10 µM is 56%.

With `C[C@H](CCC(=O)O)[C@H]1CC[C@H]2[C@@H]3CC[C@@H]4C[C@H](O)CC[C@]4(C)[C@H]3CC[C@]12C` [Compound 1, Lithocholic acid, reference compound], in the test on collagenase, the “percent inhibition of collagenase” value came to 27%. Moreover, it took 38 µM to reach half-maximal inhibition against stromelysin (IC50).

On to `C[C@H](CCC(=O)NCCC[N+](C)(C)CCCS(=O)(=O)[O-])[C@H]1CC[C@H]2[C@@H]3[C@H](O)C[C@@H]4C[C@H](O)CC[C@]4(C)[C@H]3C[C@H](O)[C@]12C` [Compound 8, 3-[(3-cholamidopropyl)dimethylammonio)-1-propanesulfonate, reference compound], for which the “percent inhibition of collagenase” value with collagenase is 22%. On stromelysin, the inhibition at 10 µM amounted to 26%.

Regarding `CCOC(=O)[C@H](CS)NC(=O)[C@H](Cc1ccccc1)NC(=O)CC[C@@H](C)[C@H]1CC[C@H]2[C@@H]3CC[C@@H]4C[C@H](O)CC[C@]4(C)[C@H]3CC[C@]12C` [Compound 19, Lithocholyl-(L)-Phenylalanyl-(L)-Cysteine Ethyl Ester], the “percent inhibition of collagenase” value in the test with collagenase worked out at 33%. In addition, the inhibition at 10 µM at gelatinase (72 (Kd)) amounted to 47%. The IC50 on stromelysin stood at 2 µM.

Turning to `C[C@H](CCC(=O)N[C@@H](Cc1ccccc1)C(=O)NO)[C@H]1CC[C@H]2[C@@H]3CC[C@@H]4C[C@H](O)CC[C@]4(C)[C@H]3CC[C@]12C` [Compound 15, Lithocholyl-(L)-Phenylalanine Hydroxamic Acid], the “percent inhibition of collagenase” value in the test with collagenase is 58%. The inhibition at 10 µM at gelatinase (72 (Kd)) is 47%; on stromelysin (at 10 μM of compound), 85%.

For `CC(C)C[C@H](NC(=O)CC[C@@H](C)[C@H]1CC[C@H]2[C@@H]3CC[C@@H]4C[C@H](O)CC[C@]4(C)[C@H]3CC[C@]12C)C(=O)NO` [Compound 9, Lithocholyl-(L)-Leucine Hydroxamic Acid], the “percent inhibition of collagenase” value with collagenase came out at 27%. Also, the results for the concentration for half-maximal inhibition (IC50) against gelatinase (72 (Kd)) and against stromelysin were 0.3 µM and 1 µM, respectively.

Take `CC(C)C[C@H](NC(=O)CC[C@@H](C)[C@H]1CC[C@H]2[C@@H]3[C@H](O)C[C@@H]4C[C@H](O)CC[C@]4(C)[C@H]3CC[C@]12C)C(=O)NO` [Compound 10, Chenodeoxycholyl-(L)-Leucine Hydroxamic Acid]: the “percent inhibition of collagenase” value with collagenase is reported as 8%. For the same molecule, the inhibition at 10 µM at gelatinase (72 (Kd)) came to 27%. Moreover, 5 µM corresponded to half-maximal inhibition against stromelysin (IC50).

`C[C@H](CCC(=O)N[C@@H](Cc1ccccc1)C(=O)NC1CCSC1=O)[C@H]1CC[C@H]2[C@@H]3CC[C@@H]4C[C@H](O)CC[C@]4(C)[C@H]3CC[C@]12C` (stereo partly drawn) [Compound 20, Lithocholyl-Phenylalanylhomocysteine Thiolactone]: in the test on collagenase, the “percent inhibition of collagenase” value stood at 57%. The values for the inhibition at 10 µM on gelatinase (72 (Kd)) and at stromelysin (at 10 μM of compound) were 30% and 57%, respectively.

Turning to `C[C@H](CCC(=O)N[C@@H](Cc1ccccc1)C(=O)NO)[C@H]1CC[C@H]2[C@@H]3[C@H](O)C[C@@H]4C[C@H](O)CC[C@]4(C)[C@H]3CC[C@]12C` [Compound 16, Chenodeoxycholyl-(L)-Phenylalanine Hydroxamic Acid], the “percent inhibition of collagenase” value in the test with collagenase is on record as 38%. Besides, the values for the inhibition at 10 µM at gelatinase (72 (Kd)) and on stromelysin (at 10 μM of compound) were 23% and 80%, respectively.

Regarding `C[C@H](CCC(=O)NOCc1ccccc1)[C@H]1CC[C@H]2[C@@H]3[C@H](O)C[C@@H]4C[C@H](O)CC[C@]4(C)[C@H]3CC[C@]12C` [Compound 12, Chenodeoxycholyl-O-Benzylhyroxamate], the “percent inhibition of collagenase” value with collagenase was 21%. For the same molecule, the inhibition at 10 µM at stromelysin (at 10 μM of compound) worked out at 5%.
